# Measured values: PubChem BioAssay AID1919005 (Molecular Pharmacology Branch, DTP, NCI, 2023)
# Several values for one entry are separate records, joined by “and”; a condition that tells them apart may be missing. Identical values can stand only once.
# System: 855422-203-R-J1-PDC complex spheroid growth
# Assay: Anticancer human tumor 855422-203-R-J1-PDC patient-derived bladder carcinoma cell line growth inhibition [AhR]
# Details: for viability, T/C: stronger effect = lower value
# Method in brief: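 Complex tumor spheroids co-cultured with HUVEC and human MSC stroma; AhR antagonists tested in combination with standard-of-care and investigational agents. Top concentration at or near clinical Cmax (else 10 microM), half-log dilutions; growth expressed as percent test/control.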
# [1] = curve of first compound, second compound 0.1 µM
# [2] = curve of first compound, second compound 0.316 µM
# [3] = curve of first compound, second compound 1 µM
# [4] = curve of first compound, second compound 3.16 µM
# [5] = curve of first compound, second compound 10 µM
# [6] = second compound 0.1 µM, first compound 0.0316 µM
# [7] = second compound 0.1 µM, first compound 0.1 µM
# [8] = second compound 0.316 µM, first compound 0.0316 µM
# [9] = second compound 0.316 µM, first compound 0.1 µM
# [10] = second compound 1 µM, first compound 0.0316 µM
# [11] = second compound 1 µM, first compound 0.1 µM
# [12] = second compound 3.16 µM, first compound 0.0316 µM
# [13] = second compound 3.16 µM, first compound 0.1 µM
# [14] = second compound 10 µM, first compound 0.0316 µM
# [15] = second compound 10 µM, first compound 0.1 µM
# 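Also: spheroids exposed to agents for seven days before readout.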
# 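For viability, T/C in this document: percent of DMSO vehicle control luminescence viability.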
compound,measurement,setting,value
Cn1ncnc1C1c2n[nH]c(=O)c3cc(F)cc(c23)NC1c1ccc(F)cc1 (stereo unspecified) + Cc1cncc(-c2nc(NCCc3c[nH]c4ccccc34)c3ncn(C(C)C)c3n2)c1,IC50,[1],> 100 nM
same,IC50,[2],> 100 nM
same,IC50,[3],> 100 nM
same,IC50,[4],> 100 nM
same,IC50,[5],< 0.316 nM
same,"viability, T/C","second compound 0.1 µM, first compound 0.000316 µM",84.1%
same,"viability, T/C","second compound 0.1 µM, first compound 0.001 µM",85.3%
same,"viability, T/C","second compound 0.1 µM, first compound 0.00316 µM",87.6%
same,"viability, T/C","second compound 0.1 µM, first compound 0.01 µM",95.9%
same,"viability, T/C",[6],87.8%
same,"viability, T/C",[7],88.2%
same,"viability, T/C","second compound 0.316 µM, first compound 0.000316 µM",91.7%
same,"viability, T/C","second compound 0.316 µM, first compound 0.001 µM",80.8%
same,"viability, T/C","second compound 0.316 µM, first compound 0.00316 µM",73.1%
same,"viability, T/C","second compound 0.316 µM, first compound 0.01 µM",88.5%
same,"viability, T/C",[8],90.3%
same,"viability, T/C",[9],81.6%
same,"viability, T/C","second compound 1 µM, first compound 0.000316 µM",81.3%
same,"viability, T/C","second compound 1 µM, first compound 0.001 µM",86.2%
same,"viability, T/C","second compound 1 µM, first compound 0.00316 µM",76.4%
same,"viability, T/C","second compound 1 µM, first compound 0.01 µM",78.3%
same,"viability, T/C",[10],77.2%
same,"viability, T/C",[11],84%
same,"viability, T/C","second compound 3.16 µM, first compound 0.000316 µM",67.6%
same,"viability, T/C","second compound 3.16 µM, first compound 0.001 µM",74.4%
same,"viability, T/C","second compound 3.16 µM, first compound 0.00316 µM",71.4%
same,"viability, T/C","second compound 3.16 µM, first compound 0.01 µM",56.6%
same,"viability, T/C",[12],76.9%
same,"viability, T/C",[13],75.2%
same,"viability, T/C","second compound 10 µM, first compound 0.000316 µM",30.7%
same,"viability, T/C","second compound 10 µM, first compound 0.001 µM",29.6%
same,"viability, T/C","second compound 10 µM, first compound 0.00316 µM",21.5%
same,"viability, T/C","second compound 10 µM, first compound 0.01 µM",5.12%
same,"viability, T/C",[14],23.6%
same,"viability, T/C",[15],26.1%
Nc1ncn(C2CC(O)C(CO)O2)c(=O)n1 (stereo unspecified),"viability, T/C",compound 0.00316 µM,94.3% and 107% and 95.8%
same,"viability, T/C",compound 0.01 µM,96.5% and 98.7% and 94.9%
same,"viability, T/C",compound 0.0316 µM,91.6% and 97.8% and 87.2%
same,"viability, T/C",compound 0.1 µM,87.2% and 88.3% and 87.7%
same,"viability, T/C",compound 0.316 µM,86.9% and 90.8% and 79.8%
same,"viability, T/C",compound 1 µM,83.3% and 83.5% and 78.8%
same,IC50,curve of compound,> 1000 nM
COc1ccc([C@@H](O)c2cc(-c3ncnc4cc(N5CCOCC5)ccc34)c(F)cc2Cl)nn1,"viability, T/C",compound 0.0316 µM,115% and 108% (2×)
same,"viability, T/C",compound 0.1 µM,97.6% and 101% and 89.4%
same,"viability, T/C",compound 0.316 µM,102% and 105% and 88.9%
same,"viability, T/C",compound 1 µM,89.7% and 98.2% and 82%
same,"viability, T/C",compound 3.16 µM,79% and 89.1% and 76.9%
same,"viability, T/C",compound 10 µM,52.3% and 71.5% and 57.8%
same,IC50,curve of compound,> 10000 nM
CCc1c2c(nc3ccc(O)cc13)-c1cc3c(c(=O)n1C2)COC(=O)[C@]3(O)CC,"viability, T/C",compound 0.000949 µM,96.8% and 105% and 92.3%
same,"viability, T/C",compound 0.003 µM,83.7% and 99.2% and 88.8%
same,"viability, T/C",compound 0.00949 µM,44.9% and 86.1% and 49.6%
same,"viability, T/C",compound 0.03 µM,14.9% and 32.5% and 16.6%
same,"viability, T/C",compound 0.0949 µM,8.05% and 16.5% and 9.46%
same,"viability, T/C",compound 0.3 µM,5.61% and 9.17% and 5.63%
same,IC50,curve of compound,8.17 nM and 20.7 nM and 9.7 nM
CC1(C)CCC(CN2CCN(c3ccc(C(=O)NS(=O)(=O)c4ccc(NCC5CCOCC5)c([N+](=O)[O-])c4)c(Oc4cnc5[nH]ccc5c4)c3)CC2)=C(c2ccc(Cl)cc2)C1 + Cc1ccccc1N=Nc1ccc(NC(=O)c2ccnn2C)c(C)c1,IC50,[1],6820 nM
same,IC50,[2],6890 nM
same,IC50,[3],7010 nM
same,IC50,[4],6660 nM
same,IC50,[5],4830 nM
same,"viability, T/C",[6],102%
same,"viability, T/C",[7],114%
same,"viability, T/C","second compound 0.1 µM, first compound 0.316 µM",101%
same,"viability, T/C","second compound 0.1 µM, first compound 1 µM",107%
same,"viability, T/C","second compound 0.1 µM, first compound 3.16 µM",110%
same,"viability, T/C","second compound 0.1 µM, first compound 10 µM",21.8%
same,"viability, T/C",[8],105%
same,"viability, T/C",[9],106%
same,"viability, T/C","second compound 0.316 µM, first compound 0.316 µM",102%
same,"viability, T/C","second compound 0.316 µM, first compound 1 µM",114%
same,"viability, T/C","second compound 0.316 µM, first compound 3.16 µM",106%
same,"viability, T/C","second compound 0.316 µM, first compound 10 µM",23.1%
same,"viability, T/C",[10],108%
same,"viability, T/C",[11],116%
same,"viability, T/C","second compound 1 µM, first compound 0.316 µM",102%
same,"viability, T/C","second compound 1 µM, first compound 1 µM",106%
same,"viability, T/C","second compound 1 µM, first compound 3.16 µM",116%
same,"viability, T/C","second compound 1 µM, first compound 10 µM",23.4%
same,"viability, T/C",[12],95.8%
same,"viability, T/C",[13],102%
same,"viability, T/C","second compound 3.16 µM, first compound 0.316 µM",105%
same,"viability, T/C","second compound 3.16 µM, first compound 1 µM",105%
same,"viability, T/C","second compound 3.16 µM, first compound 3.16 µM",98.2%
same,"viability, T/C","second compound 3.16 µM, first compound 10 µM",23.6%
same,"viability, T/C",[14],94.1%
same,"viability, T/C",[15],83.5%
same,"viability, T/C","second compound 10 µM, first compound 0.316 µM",89%
same,"viability, T/C","second compound 10 µM, first compound 1 µM",85.6%
same,"viability, T/C","second compound 10 µM, first compound 3.16 µM",62.9%
same,"viability, T/C","second compound 10 µM, first compound 10 µM",27.7%
